{
  "source": "patent US20190330275A1",
  "about": "(priority 2016, published 2019)",
  "key": {"[1]": {"molecular_target": "rat α6/α3β4 nAChR (Rattus norvegicus, UniProt P04757+P12392+P43143)", "sequence (P04757 whole entry, looked up)": "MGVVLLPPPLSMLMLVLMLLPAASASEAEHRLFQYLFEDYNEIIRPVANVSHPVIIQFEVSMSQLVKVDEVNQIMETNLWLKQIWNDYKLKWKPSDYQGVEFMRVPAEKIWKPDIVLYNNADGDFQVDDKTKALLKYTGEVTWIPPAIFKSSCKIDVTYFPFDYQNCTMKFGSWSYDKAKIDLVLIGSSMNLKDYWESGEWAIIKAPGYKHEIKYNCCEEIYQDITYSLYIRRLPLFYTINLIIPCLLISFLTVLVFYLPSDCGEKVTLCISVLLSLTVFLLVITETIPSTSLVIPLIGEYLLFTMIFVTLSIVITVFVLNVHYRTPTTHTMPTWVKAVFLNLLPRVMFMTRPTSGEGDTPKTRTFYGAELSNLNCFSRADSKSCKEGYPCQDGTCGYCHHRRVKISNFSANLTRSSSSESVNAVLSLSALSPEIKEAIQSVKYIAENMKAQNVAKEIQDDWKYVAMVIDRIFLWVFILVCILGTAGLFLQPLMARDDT", "sequence (P12392 whole entry, looked up)": "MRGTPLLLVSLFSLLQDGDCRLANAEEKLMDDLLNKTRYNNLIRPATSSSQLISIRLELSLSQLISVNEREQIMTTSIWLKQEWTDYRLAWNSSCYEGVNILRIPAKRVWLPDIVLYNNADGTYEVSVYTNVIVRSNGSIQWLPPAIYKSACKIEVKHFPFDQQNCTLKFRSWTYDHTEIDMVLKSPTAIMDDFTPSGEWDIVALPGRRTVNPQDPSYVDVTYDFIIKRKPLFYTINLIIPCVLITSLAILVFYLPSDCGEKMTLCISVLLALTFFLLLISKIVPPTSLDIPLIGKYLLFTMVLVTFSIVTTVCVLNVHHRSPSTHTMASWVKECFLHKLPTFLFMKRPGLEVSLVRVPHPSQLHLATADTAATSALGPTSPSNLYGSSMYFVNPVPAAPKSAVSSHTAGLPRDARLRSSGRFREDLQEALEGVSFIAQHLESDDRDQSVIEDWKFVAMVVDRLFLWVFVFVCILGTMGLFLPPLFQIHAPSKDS", "sequence (P43143 whole entry, looked up)": "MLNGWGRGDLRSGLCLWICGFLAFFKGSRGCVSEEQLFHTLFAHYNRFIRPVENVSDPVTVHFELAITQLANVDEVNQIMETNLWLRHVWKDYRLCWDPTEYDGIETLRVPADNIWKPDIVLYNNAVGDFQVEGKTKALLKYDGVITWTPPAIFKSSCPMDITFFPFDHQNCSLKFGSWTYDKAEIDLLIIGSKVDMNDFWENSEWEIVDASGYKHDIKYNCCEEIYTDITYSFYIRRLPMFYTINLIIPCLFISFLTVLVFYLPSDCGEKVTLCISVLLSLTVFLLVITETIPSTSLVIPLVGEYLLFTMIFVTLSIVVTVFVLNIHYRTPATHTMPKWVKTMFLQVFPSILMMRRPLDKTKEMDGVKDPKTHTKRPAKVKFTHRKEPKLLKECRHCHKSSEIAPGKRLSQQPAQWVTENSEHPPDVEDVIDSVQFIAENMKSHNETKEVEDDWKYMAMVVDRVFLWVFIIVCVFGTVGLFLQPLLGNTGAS", "test": "cell-based", "conditions": "for IC50: α6/α3β4 IC50 (half-blocking dose)"}, "[2]": {"molecular_target": "rat α3β4 nAChR (Rattus norvegicus, UniProt P04757+P12392)", "sequence (P04757 26-499 limits assumed)": "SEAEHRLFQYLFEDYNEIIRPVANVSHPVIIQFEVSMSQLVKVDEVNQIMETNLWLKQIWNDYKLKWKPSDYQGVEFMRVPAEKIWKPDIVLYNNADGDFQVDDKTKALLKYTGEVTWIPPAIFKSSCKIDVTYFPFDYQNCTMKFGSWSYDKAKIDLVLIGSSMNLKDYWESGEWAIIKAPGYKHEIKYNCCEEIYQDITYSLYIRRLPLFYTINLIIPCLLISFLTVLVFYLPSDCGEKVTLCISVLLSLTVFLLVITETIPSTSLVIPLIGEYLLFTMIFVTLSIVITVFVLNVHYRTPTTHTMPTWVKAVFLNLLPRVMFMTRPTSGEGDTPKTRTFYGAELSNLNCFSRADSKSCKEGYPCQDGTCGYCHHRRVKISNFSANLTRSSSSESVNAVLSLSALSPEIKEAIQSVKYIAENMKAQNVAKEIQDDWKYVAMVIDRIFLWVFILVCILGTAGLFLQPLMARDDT", "sequence (P12392 21-495 limits assumed)": "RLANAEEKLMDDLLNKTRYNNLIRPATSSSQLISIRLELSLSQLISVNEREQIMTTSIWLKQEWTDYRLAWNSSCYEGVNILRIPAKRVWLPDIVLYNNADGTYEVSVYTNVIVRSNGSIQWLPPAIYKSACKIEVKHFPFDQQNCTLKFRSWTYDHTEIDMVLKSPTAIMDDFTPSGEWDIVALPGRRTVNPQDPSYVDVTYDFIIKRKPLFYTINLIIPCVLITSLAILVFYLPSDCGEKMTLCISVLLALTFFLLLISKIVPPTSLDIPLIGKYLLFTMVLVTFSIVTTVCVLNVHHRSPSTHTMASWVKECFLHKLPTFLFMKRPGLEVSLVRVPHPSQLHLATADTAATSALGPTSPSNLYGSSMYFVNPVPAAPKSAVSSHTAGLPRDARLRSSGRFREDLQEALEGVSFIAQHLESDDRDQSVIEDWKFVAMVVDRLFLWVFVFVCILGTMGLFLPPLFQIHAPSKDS", "test": "cell-based", "conditions": "for IC50: α3β4 IC50 (half-blocking dose)"}},
  "note": "“And” between values parts separate entries of the source, which are not always exact repeats. Identical values can stand only once. Peptide text beside a SMILES is read from it.",
  "data": [
    {"smiles": "CC[C@H](C)[C@@H]1NC(=O)[C@@H]2CCCN2C(=O)[C@H](CO)NC(=O)[C@H](CCSC)NC(=O)[C@H](C)NC(=O)[C@H](CC(=O)O)NC(=O)[C@@H]2CSSC[C@H](NC(=O)CN)C(=O)N[C@@H](CSSC[C@@H](C(N)=O)NC1=O)C(=O)N[C@@H](CO)C(=O)N[C@@H](Cc1c[nH]cn1)C(=O)N1CCC[C@H]1C(=O)N[C@@H](C(C)C)C(=O)N2", "note": "[TxID[S9D]] (HELM PEPTIDE1{G.C.C.S.H.P.V.C.D.A.M.S.P.I.C.[am]}$PEPTIDE1,PEPTIDE1,2:R3-8:R3|PEPTIDE1,PEPTIDE1,3:R3-15:R3$$$V2.0)", "values": [
      {"measurement": "blocking effect on the current of rat α6/α3β4 nAChRs", "setting": "[1]", "result": "no blocking effect"}
    ]},
    {"smiles": "CC[C@H](C)[C@@H]1NC(=O)[C@@H]2CCCN2C(=O)[C@H](CO)NC(=O)[C@H](CCSC)NC(=O)[C@H](C)NC(=O)[C@H](CC(C)C)NC(=O)[C@@H]2CSSC[C@H](NC(=O)CN)C(=O)N[C@@H](CSSC[C@@H](C(N)=O)NC1=O)C(=O)N[C@@H](CO)C(=O)N[C@@H](Cc1c[nH]cn1)C(=O)N1CCC[C@H]1C(=O)N[C@@H](C(C)C)C(=O)N2", "note": "[TxID[S9L]] (HELM PEPTIDE1{G.C.C.S.H.P.V.C.L.A.M.S.P.I.C.[am]}$PEPTIDE1,PEPTIDE1,2:R3-8:R3|PEPTIDE1,PEPTIDE1,3:R3-15:R3$$$V2.0)", "values": [
      {"measurement": "binding (blocking) activity to α3β4 nAChR compared with wild type TxID", "setting": "[2]", "result": "not significantly different from the activity of the wild type TxID"},
      {"measurement": "blocking of rat α3β4 nAChRs current", "setting": "[2]", "result": "strong blocking activities"},
      {"measurement": "current after 2 min of elution", "setting": "[2]", "result": "~0", "unit": "nA"},
      {"measurement": "elution after blocking the α3β4 nAChR current", "setting": "[2]", "result": "very slow"},
      {"measurement": "binding (blocking) activity to α6/α3β4 nAChR compared with wild type TxID", "setting": "[1]", "result": "not significantly different from the activity of the wild type TxID"}
    ]},
    {"smiles": "CC[C@H](C)[C@@H]1NC(=O)[C@@H]2CCCN2C(=O)[C@H](CO)NC(=O)[C@H](CCSC)NC(=O)[C@H](C)NC(=O)[C@H](CCCCN)NC(=O)[C@@H]2CSSC[C@H](NC(=O)CN)C(=O)N[C@@H](CSSC[C@@H](C(N)=O)NC1=O)C(=O)N[C@@H](CO)C(=O)N[C@@H](Cc1c[nH]cn1)C(=O)N1CCC[C@H]1C(=O)N[C@@H](C(C)C)C(=O)N2", "note": "[TxID[S9K]] (HELM PEPTIDE1{G.C.C.S.H.P.V.C.K.A.M.S.P.I.C.[am]}$PEPTIDE1,PEPTIDE1,2:R3-8:R3|PEPTIDE1,PEPTIDE1,3:R3-15:R3$$$V2.0)", "values": [
      {"measurement": "blocking of rat α3β4 nAChRs current", "setting": "[2]", "result": "completely blocked"},
      {"measurement": "blocking effect on the current of rat α6/α3β4 nAChRs", "setting": "[1]", "result": "no blocking effect"},
      {"measurement": "blocking of α6/α3β4 nAChR current as part of the control current", "setting": "[1]", "result": "less than ¼"},
      {"measurement": "current blockade", "setting": "[1]", "result": "less than 50%"}
    ]},
    {"smiles": "CC[C@H](C)[C@@H]1NC(=O)[C@@H]2CCCN2C(=O)[C@H](CO)NC(=O)[C@H](CCSC)NC(=O)[C@H](C)NC(=O)[C@H](CO)NC(=O)[C@H](CCCNC(=N)N)NC(=O)[C@@H]2CSSC[C@H](NC(=O)CN)C(=O)N[C@@H](CSSC[C@@H](C(N)=O)NC1=O)C(=O)N[C@@H](CO)C(=O)N[C@@H](Cc1c[nH]cn1)C(=O)N1CCC[C@H]1C(=O)N[C@@H](C(C)C)C(=O)N2", "note": "[TxID[9R]] (HELM PEPTIDE1{G.C.C.S.H.P.V.C.R.S.A.M.S.P.I.C.[am]}$PEPTIDE1,PEPTIDE1,2:R3-8:R3|PEPTIDE1,PEPTIDE1,3:R3-16:R3$$$V2.0)", "values": [
      {"measurement": "IC50", "setting": "[2]", "result": "> 10000", "unit": "nM"},
      {"measurement": "IC50", "setting": "[1]", "result": "> 10000", "unit": "nM"}
    ]},
    {"smiles": "CC[C@H](C)[C@@H]1NC(=O)[C@@H]2CCCN2C(=O)[C@H](CO)NC(=O)[C@H](CCSC)NC(=O)[C@H](C)NC(=O)[C@H](Cc2ccccc2)NC(=O)[C@@H]2CSSC[C@H](NC(=O)CN)C(=O)N[C@@H](CSSC[C@@H](C(N)=O)NC1=O)C(=O)N[C@@H](CO)C(=O)N[C@@H](Cc1c[nH]cn1)C(=O)N1CCC[C@H]1C(=O)N[C@@H](C(C)C)C(=O)N2", "note": "[TxID[S9F]] (HELM PEPTIDE1{G.C.C.S.H.P.V.C.F.A.M.S.P.I.C.[am]}$PEPTIDE1,PEPTIDE1,2:R3-8:R3|PEPTIDE1,PEPTIDE1,3:R3-15:R3$$$V2.0)", "values": [
      {"measurement": "binding (blocking) activity to α3β4 nAChR compared with wild type TxID", "setting": "[2]", "result": "not significantly different from the activity of the wild type TxID"},
      {"measurement": "elution after blocking the α3β4 nAChR current", "setting": "[2]", "result": "very slow"},
      {"measurement": "α3β4 IC50 ratio", "setting": "[2]", "result": 3.8},
      {"measurement": "IC50 ratio of α6/α3β4 vs. α3β4 (Discrimination)", "setting": "[1]", "result": 0.5},
      {"measurement": "binding (blocking) activity to α6/α3β4 nAChR compared with wild type TxID", "setting": "[1]", "result": "not significantly different from the activity of the wild type TxID"},
      {"measurement": "elution rate after blocking α6/α3β4 nAChR current", "setting": "[1]", "result": "significantly slower than those of other polypeptides"},
      {"measurement": "α6/α3β4 IC50 ratio", "setting": "[1]", "result": 0.2}
    ]},
    {"smiles": "CSCC[C@@H]1NC(=O)[C@H](C)NC(=O)[C@H](CO)NC(=O)[C@@H]2CSSC[C@H](NC(=O)CN)C(=O)N[C@@H](CSSC[C@@H](C(N)=O)NC(=O)[C@H](CC(=O)O)NC(=O)[C@@H]3CCCN3C(=O)[C@H](CO)NC1=O)C(=O)N[C@@H](CO)C(=O)N[C@@H](Cc1c[nH]cn1)C(=O)N1CCC[C@H]1C(=O)N[C@@H](C(C)C)C(=O)N2", "note": "[TxID[I14D]] (HELM PEPTIDE1{G.C.C.S.H.P.V.C.S.A.M.S.P.D.C.[am]}$PEPTIDE1,PEPTIDE1,2:R3-8:R3|PEPTIDE1,PEPTIDE1,3:R3-15:R3$$$V2.0)", "values": [
      {"measurement": "α3β4 IC50 ratio", "setting": "[2]", "result": 2.7},
      {"measurement": "IC50", "setting": "[2]", "result": 9.8, "unit": "nM"},
      {"measurement": "IC50 ratio of α6/α3β4 vs. α3β4 (Discrimination)", "setting": "[1]", "result": 4.2},
      {"measurement": "α6/α3β4 IC50 ratio", "setting": "[1]", "result": 1.2},
      {"measurement": "IC50", "setting": "[1]", "result": 40.8, "unit": "nM"}
    ]},
    {"smiles": "CC[C@H](C)[C@@H]1NC(=O)[C@@H]2CCCN2C(=O)[C@H](CO)NC(=O)[C@H](CCSC)NC(=O)[C@H](C)NC(=O)[C@H](C)NC(=O)[C@@H]2CSSC[C@H](NC(=O)CN)C(=O)N[C@@H](CSSC[C@@H](C(N)=O)NC1=O)C(=O)N[C@@H](CO)C(=O)N[C@@H](Cc1c[nH]cn1)C(=O)N1CCC[C@H]1C(=O)N[C@@H](C(C)C)C(=O)N2", "note": "[TxID[S9A]] (HELM PEPTIDE1{G.C.C.S.H.P.V.C.A.A.M.S.P.I.C.[am]}$PEPTIDE1,PEPTIDE1,2:R3-8:R3|PEPTIDE1,PEPTIDE1,3:R3-15:R3$$$V2.0)", "values": [
      {"measurement": "binding (blocking) activity to α3β4 nAChR compared with wild type TxID", "setting": "[2]", "result": "no effect on the blocking activity"},
      {"measurement": "current blocked", "setting": "[2]", "result": "98% and 75%"},
      {"measurement": "blocking activity to α6β4* nAChRs subtype", "setting": "[1]", "result": "completely lost the blocking activity"},
      {"measurement": "current blocked", "setting": "[1]", "result": 26, "unit": "%"}
    ]},
    {"smiles": "CC[C@H](C)[C@@H]1NC(=O)[C@H](C)NC(=O)[C@H](CO)NC(=O)[C@@H]2CSSC[C@H](NC(=O)CN)C(=O)N[C@@H](CSSC[C@@H](C(N)=O)NC(=O)[C@H]([C@@H](C)CC)NC(=O)[C@@H]3CCCN3C(=O)[C@H](CO)NC1=O)C(=O)N[C@@H](CO)C(=O)N[C@@H](Cc1c[nH]cn1)C(=O)N1CCC[C@H]1C(=O)N[C@@H](C(C)C)C(=O)N2", "note": "[TxID[M11I]] (HELM PEPTIDE1{G.C.C.S.H.P.V.C.S.A.I.S.P.I.C.[am]}$PEPTIDE1,PEPTIDE1,2:R3-8:R3|PEPTIDE1,PEPTIDE1,3:R3-15:R3$$$V2.0)", "values": [
      {"measurement": "binding (blocking) activity to α6/α3β4 nAChR compared with wild type TxID", "setting": "[1]", "result": "not a decrease"}
    ]},
    {"smiles": "CC[C@H](C)[C@@H]1NC(=O)[C@@H]2CCCN2C(=O)[C@H](CO)NC(=O)[C@H](CCSC)NC(=O)[C@H](C)NC(=O)[C@H](CO)NC(=O)[C@@H]2CSSC[C@H](NC(=O)[C@H](C)N)C(=O)N[C@@H](CSSC[C@@H](C(N)=O)NC1=O)C(=O)N[C@@H](CO)C(=O)N[C@@H](Cc1c[nH]cn1)C(=O)N1CCC[C@H]1C(=O)N[C@@H](C(C)C)C(=O)N2", "note": "[TxID[G1A]] (HELM PEPTIDE1{A.C.C.S.H.P.V.C.S.A.M.S.P.I.C.[am]}$PEPTIDE1,PEPTIDE1,2:R3-8:R3|PEPTIDE1,PEPTIDE1,3:R3-15:R3$$$V2.0)", "values": [
      {"measurement": "IC50", "setting": "[1]", "result": "100 to 1000", "unit": "nM"}
    ]}
  ]
}
